Drawing on ChEMBL document CHEMBL3507680, “University of Dundee, Gates Library screen for HepG2 cell viability”, this text covers cytotoxicity for 99 compounds.

The nature of this series: Human HepG2 cell viability assay in 384 well format. The following applies: HepG2 cells, read-out: Inhibition. The arrangement: dose 125 nL, time 70.5 hour; concentration not given beside the values. The class given is toxicity, cell-based.
In the case of `CN(Cc1ccccc1)CC(O)Cn1cnc2ccsc2c1=O` (centres undefined), the cytotoxicity at 70.5 h is -8.61%.
As for `Cc1ccc(CN2Cc3nnn(C)c3C(COCc3ccccc3)C2)s1` (centres undefined), the cytotoxicity at 70.5 h was 4.74%.
Next, `OC1(CN2CCc3nnc(Cc4cccnc4)n3CC2)CCCNC1` (centres undefined): -4.53%; `Cc1ccccc1-c1noc(CN2CCn3c(nnc3C3CC3)C2)n1`: 20.5%.
Consider `CCCc1noc(C2CC(=O)N(C(C)(C)C)C2)n1` (centres undefined), for which the cytotoxicity at 70.5 h was -16%.
For the compound `Cc1cc(NCCNS(=O)(=O)c2cn(C)nc2C)c2ccccc2n1`, the cytotoxicity at 70.5 h was determined as 13.5%.
Next, `O=C(c1ccc2cccc(F)c2n1)N1CCN(CCn2cncn2)CC1`: -9.3%; `COc1ccccc1C1(CNc2snc(Cl)c2C#N)CCCC1`: 19.8%.
Next, `CCn1nc(C)c2ccn(CC(=O)NC3CC3)c(=O)c21`: -9.78%; `CCOc1ccc(C(=O)Nc2c(C)nc3scc(C)n3c2=O)cc1`: -0.312%.
Take `CN(CCC(=O)N1CCc2sccc2C1)Cc1ccc2c(c1)OCCO2`: the cytotoxicity at 70.5 h is -2.14%.
For the compound `Nc1ncccc1C(=O)NCc1ccc(Br)cc1`, the cytotoxicity at 70.5 h is -2.61%.
The value for `Cc1noc(C(C)NC(=O)[C@@H](C)NC(=O)OC(C)(C)C)n1` (some centres undefined) was -3.59%; that for `CC(C)CNC(=O)CN1C=Nc2ccccc2S1(=O)=O` was 20.2%; that for `O=C(NCCc1nnc2n1CCC2)c1ccccc1OC1CCCC1` was -9.31%.
Next, `O=C(c1cccc(OC2CCCC2)c1)N1CCCC(n2cncn2)C1` (centres undefined): 5.3%; `O=C(c1ccc2nccnc2c1)N1CCN(CCO)[C@@H]2CS(=O)(=O)C[C@@H]21`: -9.05%; `COc1cc(CCC(=O)NCC2CC2)ccc1OCC(F)(F)F`: -11.6%.
The value for `CCOC[C@@H]1CCC[C@]12CN(S(=O)(=O)c1cn(C)cn1)CCO2` was -5.13%; that for `O=C(O)c1ccccc1-c1cnc(CNC(=O)C2CCOCC2)nc1` was 14%; that for `CCOc1ccc(C#N)cc1NC(=O)N1CCCC(NC(=O)CC)C1` (centres undefined) was -7.12%.
Regarding `COCc1cncc2c1CCN(Cc1cccnc1)C2`, the cytotoxicity at 70.5 h was -3.24%.
As to `CCN(CC)C(=O)[C@@H]1C[C@@H](NC(=O)c2cccc(N(C)C)c2)CN1C`, the cytotoxicity at 70.5 h is 26.1%.
In the case of `COCC(=O)N1CCCC2(CCN(Cc3cccc(C)n3)C2=O)C1` (centres undefined), the cytotoxicity at 70.5 h is -0.526%.
Take `CCOC1CCCN(C(=O)c2[nH]nc(C)c2Br)C1` (centres undefined): the cytotoxicity at 70.5 h is -11.5%.
For `CN(C)CCN(C)C[C@@H]1CN(C(=O)NC2CCCC2)C[C@@H]1CO`, the cytotoxicity at 70.5 h was -8.45%.
The value for `Cn1nnc2c1C(COCC1CC1)CN(C(=O)Cc1cccs1)C2` (centres undefined) was -19.3%; that for `CCOCC(O)CN1CCN(C(=O)c2cc(F)cc(F)c2)CC1` (centres undefined) was -2.71%; that for `CCNc1cc2c(nn1)CCN(C(=O)C1COc3ccccc3O1)C2` (centres undefined) was -12.7%.
In the case of `Cc1cnc(N2C(=O)CSC2c2cccs2)s1` (centres undefined), the cytotoxicity at 70.5 h was 28.2%.
The value for `Cc1ccc(CNCC2CNc3cc(C)nn3C2)cn1` (centres undefined) was 15.9%.
Regarding `CCOc1ccc(C(=O)N(Cc2cnn(C)c2)C(C)C)cc1OCC`, the cytotoxicity at 70.5 h is -3.25%.
For `CC(c1ccccn1)N(C)C(=O)CN1CCN(c2ccccn2)CC1` (centres undefined), the cytotoxicity at 70.5 h is -11.5%.
Turning to `CC(=O)N(C)Cc1ccc(OCc2cccs2)cc1`, the cytotoxicity at 70.5 h is -2.58%.
For `COCCNC(=O)Cn1cc(NC(=O)c2cc(Cl)c(Cl)n2C)cn1`, the cytotoxicity at 70.5 h was determined as 0.862%.
In the case of `CCN(CC)C1COc2c(cc(Br)c(C)c2C)C1=O` (centres undefined), the cytotoxicity at 70.5 h is -6.45%.
The value for `N#Cc1ccc(C(=O)N2CC[C@H]3[C@@H]2CCC(=O)N3c2cccnc2)cc1` was -6.84%; that for `O=C(Cc1cccnc1)N1CCC2(CC1)CCN(C1CCOC1)C2` (centres undefined) was 8.42%; that for `CC(=O)N1CCC(Cc2cnc(-c3c(C)n[nH]c3C)cn2)C1` (centres undefined) was -13.1%.
Next, `COc1ccc(Cl)cc1CC(=O)N1CCN(CCO)CC1`: 12.5%.
Next, `c1cc(-c2nc(C3CCN(Cc4ccsc4)CC3)no2)ccn1`: 36.8%; `CC1CCCN(C(=O)CCNS(=O)(=O)c2cccnc2)C1` (centres undefined): 1.82%.
In the case of `O=C(CCC(=O)N1CCC(Cc2ccc(CO)cc2)C1)c1ccccc1` (centres undefined), the cytotoxicity at 70.5 h was -13.8%.
The value for `CCNC(=O)NC[C@H]1C[C@@H]2CCN1C[C@@H]2c1cc(-c2cccs2)nn1C` was -3.63%; that for `Cc1cc(NC(C)Cc2cccnc2)n2nccc2n1` (centres undefined) was -12%.
For `Cc1ccc(S(=O)(=O)Nc2ccc(=O)n(C)c2)cc1`, the cytotoxicity at 70.5 h is -13.1%.
Next, `Cc1ccc(C(=O)Nc2ccc(N3CCCC3)cn2)cc1C`: 0.417%.
The value for `Cn1ccc(CN2CCC(c3ccccc3)CC2)cc1=O` was -8.13%; that for `CC(O)CN1CC(C)(C)CN(C(=O)CCc2ccccc2)CC1=O` (centres undefined) was -2.42%.
Next, `O=C(c1ccc(-n2cnnn2)cc1)N1CCCC(n2ccnc2)C1` (centres undefined): -6.98%.
As to `COc1cc(CO)ccc1OCc1nc(C2CC2)no1`, the cytotoxicity at 70.5 h was -7.52%.
For `CCc1nc(CN2CCCN(Cc3nnc(C4CC4)o3)CC2)no1`, the cytotoxicity at 70.5 h was -5.98%.
As for `COc1cc(C)c(NC(=O)NCCn2cccc2)cc1OC`, the cytotoxicity at 70.5 h amounted to 10.3%.
`O=c1oc(-c2ccc(F)cc2)nn1CC1CCCCO1` (centres undefined): the cytotoxicity at 70.5 h is -3.87%.
Next, `CNC(=O)CN1CCC(OCC2CCCO2)CC1` (centres undefined): -8.23%; `NC(=O)c1ccc(CN2CCCC(N3CCCC3)C2)cc1` (centres undefined): -7.14%.
As to `CC(C)(C(=O)NCc1n[nH]c(=O)[nH]1)c1ccc(F)cc1`, the cytotoxicity at 70.5 h was -2.39%.
The value for `CS(=O)(=O)NCc1ccc(NC(=O)CC2=CCCCC2)cc1` was -0.966%; that for `Cc1noc(C)c1CC(=O)N1CCCC(c2noc(C(C)C)n2)C1` (centres undefined) was -9.31%; that for `c1cnn(CC2CCCN2Cc2nc(C3CC3)no2)c1` (centres undefined) was -8.97%.
For `CCc1cc(CNC(=O)Nc2cc(F)cc(N3CCCC3)c2)on1`, the cytotoxicity at 70.5 h is -11.5%.
For the compound `CN(C)C(C(=O)NCC1(O)CCCCC1)c1c(F)cccc1F` (centres undefined), the cytotoxicity at 70.5 h was -13%.
Take `O=C(NC1CC(F)(F)C1)[C@]12COC[C@H]1CN(Cc1ccsc1)C2`: the cytotoxicity at 70.5 h is -2.91%.
The value for `Cc1n[nH]c2c1C(c1ccc(O)cc1)SCC(=O)N2` (centres undefined) was -11%.
Regarding `Cc1nnc([C@@]23CCO[C@@H]2CCN(S(C)(=O)=O)C3)o1`, the cytotoxicity at 70.5 h was -0.978%.
Regarding `Cc1nc(C(=O)N2CCCC2c2c(C)nn(C)c2Cl)ccc1C#N` (centres undefined), the cytotoxicity at 70.5 h was -4.22%.
For `CN1CCN(Cc2cn3c(n2)CN(Cc2ccc(F)cc2)CC3)CC1`, the cytotoxicity at 70.5 h was -9.1%.
Next, `CC(C)CC(CNC(=O)c1cccnc1Oc1cccnc1)N(C)C` (centres undefined): 8.64%; `CCc1nc(N2CCC3(CC2)OCCCC3O)ncc1C` (centres undefined): -2.39%.
With `Cc1nc(NC(=O)COCC2CC2)ccc1Br`, the cytotoxicity at 70.5 h was -8.55%.
With `FC(F)(F)c1ccc2nc([C@H]3CCN(C4CCCCC4)C3)[nH]c2c1`, the cytotoxicity at 70.5 h worked out at 5.15%.
The value for `Cc1cc(N2CCN(CC(=O)N(C)C)CC2)nc(-c2ccncc2)n1` was 27.8%; that for `COc1cc(N(C)Cc2cc(C(C)(C)C)n[nH]2)ncn1` was 17.2%; that for `Cc1nc(C(C)(C)NCc2ncc(C(C)C)o2)sc1C` was -5.11%.
Take `CC(C)N1CCC(NC(=O)c2cn(-c3ccc(F)cc3)nn2)C1` (centres undefined): the cytotoxicity at 70.5 h is -16.5%.
Next, `CN(Cc1cnn(C)c1)C(=O)c1ccc(Cl)c(N2CCNC2=O)c1`: -22.2%; `CCOC1CCN(C(=O)NCc2ccc(C(=O)N(C)C(C)C)cc2)CC1`: -18.5%.
For the compound `CCCNC(=O)c1cc2c([nH]c1=O)CC(c1cccs1)CC2=O` (centres undefined), the cytotoxicity at 70.5 h was -19.4%.
For the compound `CNC(=O)[C@@H]1C[C@@H](N)CN1C(=O)CCSCc1ccc(F)cc1`, the cytotoxicity at 70.5 h was 7.46%.
Next, `c1cnc(Nc2ccc(C3CCCCN3Cc3ccncc3)cn2)nc1` (centres undefined): -6.32%; `Cc1nccnc1-n1c(COCC(=O)O)nc2c(C)cccc21`: -1.07%; `COCCN(Cc1ccoc1)C(=O)c1c(F)cccc1F`: -3.64%.
As to `CC(=O)N1CCc2[nH]cnc2C1C1=CCCN(CCn2cccc2)C1` (centres undefined), the cytotoxicity at 70.5 h is -4.34%.
Regarding `CC(=O)c1ccc(N2CCN(C(=O)c3cc(C(C)C)nn3C)CC2)cc1`, the cytotoxicity at 70.5 h is -14.7%.
With `Cc1ccc(-n2cnnn2)cc1NCC(=O)Nc1ccccc1Cl`, the cytotoxicity at 70.5 h was -101%.
Next, `CN(C)c1nc2c(c(NCc3nnc4n3CCCCC4)n1)CCNC2`: -6.97%; `Cc1cccc(CN2CCc3ncnc(Oc4cccnc4)c3CC2)n1`: 27.9%.
Next, `Cc1ccc(CN2CCC[C@]3(C(=O)O)CN(c4ncccn4)C[C@@H]3C2)o1`: 0.612%; `COCCN1C[C@H]2CN(C(=O)c3ccc4c(c3)OCO4)CCN2C1=O`: -3.46%; `c1ccc(N2CCCC3(CCN(Cc4ccsc4)C3)C2)nc1` (centres undefined): -7.47%.
Regarding `CN(CCOc1ccc(F)cc1)S(=O)(=O)N1CCOCC1`, the cytotoxicity at 70.5 h is -9.68%.
With `O=C(NC1(c2nccs2)CCCC1)c1[nH]nc(C2CC2)c1Cl`, the cytotoxicity at 70.5 h is 3%.
Turning to `COC(C(=O)N1CCN(Cc2noc(C)n2)CC1)c1ccccc1` (centres undefined), the cytotoxicity at 70.5 h is -3.29%.
Next, `CCn1cc(CN2CCCN(C(=O)c3ccc(C)o3)CC2)cn1`: 20.7%; `Cc1ccc(NC2CCN(C(=O)CCOCC(F)(F)F)CC2)nn1`: -2.83%.
`CN(C)C(=O)c1cccnc1N1CCOC(c2ccc(Cl)cc2)C1` (centres undefined): the cytotoxicity at 70.5 h was -12.8%.
Next, `Cc1nn(C)c2nc(N3CCC(C(O)Cc4ccccc4)CC3)sc12` (centres undefined): -2.11%; `CCn1cnnc1CNC(=O)N1CCN(c2cccc(OC)c2)CC1`: -6.51%; `O=C(c1ncncc1Cl)N1CCC2(CCCC2)CC1`: -5.92%.
